# Measurements reported in ChEMBL document CHEMBL3992492, “Sulfoximines from a Medicinal Chemist's Perspective: Physicochemical and in vitro Parameters Relevant for Drug Discovery” (Eur J Med Chem, 2017).
# Assays:
# [1] = Apparent partition coefficient, log P of the compound in n-octanol/aqueous mixture by potentiometric titration method; format: physicochemical
# [2] = Dissociation constant, pKb of the compound in aqueous/organic mixture at pH 2 to 12 by potentiometric titration method; format: physicochemical; conditions: buffer
# [3] = physchem; conditions: acetonitrile/water mixture
# Description: Solubility of the compound in acetonitrile/water mixture at 10 mM measured after 24 by HPLC-UV method
# [4] = in vitro; conditions: human, liver microsomes
# [5] = in vitro; conditions: PAMPA, pH 7.4
# Description: Apparent permeability of the compound at pH 7.4 by PAMPA
# [6] = in vitro; conditions: human, liver microsomes; remark: listed apart in the source
# Description: Half life in human liver microsomes at 1 uM in presence of NADPH by LC-MS/MS method
# [7] = physchem; conditions: octanol/water, pH 10
# [8] = physchem; conditions: aqueous
# [9] = Drug degradation in pH >10 NH3 after 7 days by HPLC method
# [10] = Drug degradation in pH <1 HCl after 7 days by HPLC method
logP [1],pKb [2],solubility at 10000 µM [3] [µg/mL],hepatic extraction ratio at 1 µM [4],Papp [5] [×10⁻⁶ cm/s],half-life at 1 µM [6] [h],logP [7],solubility thermodynamic [8] [µg/mL],SMILES,Drug degradation [9] [%],Drug degradation [10] [%]
-2.7,4.8,> 75,0.82,5.8,0.133,–,–,O=S1(=Nc2cccnc2)CCCCC1,–,–
2.5,–,48,< 0.23,9.6,> 2.17,–,–,O=S1(=Nc2ccc(C(F)(F)F)cc2)CCC1,–,–
3.7,–,20,< 0.23,2.5,> 2.17,–,–,C[S@](=O)(=Nc1ccc(C(F)(F)F)cc1)c1ccccc1,–,–
-0.1,–,37,< 0.23,9.5,> 2.17,–,–,O=S1(=Nc2ccccc2)CCCCC1,–,–
–,–,> 54,< 0.23,5,> 2.17,1.6,800,CNS(C)(=O)=Nc1ccc(C(F)(F)F)cc1 (configuration not stated),–,–
–,–,46,–,–,–,2.5,200,CN(c1ccc(C(F)(F)F)cc1)S(C)(=O)=O,–,–
–,–,> 53,0.39,11,1.03,1.8,300,CS(C)(=O)=NC(=O)c1ccc(C(F)(F)F)cc1,< 10,> 90
0.7,–,> 46,0.25,9.5,2,–,> 1000,O=S1(=Nc2ccc(F)cc2)CCCCC1,–,–
–,–,–,–,–,–,1.3,400,CS(=O)(=O)Cc1ccc(C(F)(F)F)cc1,–,–
–,–,14,< 0.23,7.1,> 2.17,2.6,10,CC(C)(C)NC(=O)c1ccc(C(F)(F)F)cc1,–,–
–,–,–,< 0.23,9.5,> 2.17,1.5,1200,CN=S(=O)(c1ccc(C(F)(F)F)cc1)N(C)C (configuration not stated),10,< 10
2.3,–,40,< 0.23,7.8,> 2.17,–,–,CS(=O)(=Nc1ccc(C(F)(F)F)cc1)C1CC1 (configuration not stated),–,–
–,–,< 1,–,0.8,–,4.4,< 1,CC(C)(C)OC(=O)Nc1ccc(C(F)(F)F)cc1,–,–
2.4,–,50,0.26,8.7,1.83,–,6000,O=S1(=Nc2ccc(C(F)(F)F)cc2)CCCC1,–,–
2.5,–,46,< 0.23,9.6,> 2.17,–,–,CS(=O)(=Nc1ccc(C(F)(F)F)cc1)C1CCOCC1 (configuration not stated),–,–
–,3.3,> 68,–,3.3,–,0.4,500,CS(C)(=N)=NC(=O)Nc1ccc(C(F)(F)F)cc1,< 10,< 10
2.5,–,47,< 0.23,8.4,> 2.17,–,–,CS(=O)(=Nc1ccc(C(F)(F)F)cc1)c1cccnc1 (configuration not stated),–,–
–,–,> 52,–,9.7,–,0.8,1300,CC(=O)N(C)c1ccc(C(F)(F)F)cc1,–,–
4,–,< 1,0.87,3.3,0.1,–,–,O=S1(=Nc2cc(C(F)(F)F)cc(C(F)(F)F)c2)CCCCC1,–,–
1.4,–,> 50,< 0.23,8.2,> 2.17,1.4,900,CS(C)(=O)=Nc1ccc(C(F)(F)F)cc1,20,13
2.7,–,> 57,< 0.23,8,> 2.17,–,300,O=S1(=Nc2ccc(C(F)(F)F)cc2)CCOCC1,–,–
0.9,5.2,> 57,0.25,8.3,1.83,–,2300,O=S1(=Nc2ccc(C(F)(F)F)cc2)CCNCC1,–,–
2.8,–,51,0.46,7.7,0.767,2.8,70,O=S1(=Nc2ccc(C(F)(F)F)cc2)CCCCC1,< 10,< 10
–,–,10,0.39,6,1,1.8,100,CC(=O)Nc1ccc(C(F)(F)F)cc1,–,–
